Read-outs that look alike come from different tables or passages of the source.
Tests used:
[1] = system: Carrageenin-Induced Edema; assay: Carrageenin-induced edema in the rat; format: in vivo, rat (Royal Hart, Wistar strain); details: by gavage, 5 hours after drug (4 hours after carrageenin challenge); dose not given
Procedure: In determining the acute anti-inflammatory activity of the cis-2-benzoyl-3-hydroxy-2-alkenonitriles of the present invention, Royal Hart, Wistar strain rats, ranging in weight from 80 to 90 grams were used. The rats were fasted overnight prior to dosing but had free access to water. The test compounds were administered in aqueous suspension, by gavage, in a volume of 1.7 ml. per 50 grams of rat [corresponds to hydration volume used by Winter, et al., Proc. Soc. […] The phlogistic agent used was carrageenin prepared as a sterile 1% suspension in 0.9% aqueous sodium chloride for routine testing. A volume of 0.05 ml. was injected through a 26 gauge needle into the plantar tissue of the right hind paw. Measurements were made 5 hours after drug administration (4 hours after carrageenin challenge). Volumes of both the normal and carrageenin inflammed feet were determined. The difference between the two measurements is considered to be the increased edema due to the carrageenin administration. Results are expressed as a C/T efficacy ratio (edema of control animals/edema of treated animals).

arthritic paw swelling = details: cited from earlier work
[2] = system: Migration Inhibitory Factor; assay: Migration inhibitory factor in the guinea pig (capillary tube macrophage migration assay, direct MIF assay); format: cell-based, guinea pig (male Hartley); details: number of tests wherein the percent reversal of inhibition =15%
Text: Rheumatoid arthritis is a chronic inflammatory disease that is characterized by the migration of lymphocytes, macrophages and polymorphonuclear leukocytes to the sites of inflammation. The migration of lymphocytes and macrophages and their multiplication in situ is one reason for the very large increase in size of the normally thin synovial membrane, the membrane that encloses the joint space. The synovial membrane that has been transformed in this manner, slowly grows over the aricular surfaces and causes the destruction of the articular cartilage and other connective tissue structures of the joint. One of the mechanisms for the destruction of articular cartilage by the synovium is believed to be through the release of various hydrolytic enzymes by the resident macrophages which have been immobilized and activated by migration inhibitory factor (MIF). Macrophages stimulated by MIF are termed "activated macrophages" and undergo the following changes: (a) increased glucose oxidation, (b) increased ruffling of plasma membrane and increased spreading of cells, (c) synthesis and secretion of neutral proteases, (d) release of preformed lysosomal enzymes, (e) decreased migration from a capillary tube. […] Drugs that can therefore block the release of MIF by lymphocytes or the activation of macrophages by MIF should be clinically effective in retarding the destructive joint damage which occurs in rheumatoid arthritis. Drugs can be tested as MIF inhibitors by using the capillary tube migration assay as follows.
Male Hartley guinea pigs, weighing between 300 and 600 grams, are injected intraperitoneally with 25 ml Marcal 52 Oil® (Humble Oil). Three to four days later, the guinea pigs are sacrificed by decapitation, the peritoneum opened, and the exudate aspirated into a separatory funnel after the addition of 50 ml of cold Hank's solution. This is repeated two times. The oil phase is discarded and the cell supsension is spun down at 1200 r.p.m. for ten minutes. The cells are resuspended in Hank's solution and spun down at 900 r.p.m. for five minutes. This is repeated two times. Viability of the cells is then determined using trypan blue. In all experiments, viability is greater than 90%. The cell concentration is then adjusted to give a 10% packed cell volume by the addition of the appropriate amount of MEM® (Gibco 109)+15% guinea pig serum. […] To determine the area of cell migration out of the capillary tube onto the chamber surface, the chambers are projected onto a microscope screen, the area traced onto paper, and then measured using a planimeter. […]

[3] = system: Adjuvant Induced Arthritis; assay: Adjuvant-induced arthritis in the rat; format: in vivo, rat (Royal Hart, Wistar strain); details: for inhibition in vivo at 25 mg/kg: oral 25 mg./kg.; for inhibition in vivo at 50 mg/kg: oral 50 mg./kg.
Procedure: Groups of three Royal Hart, Wistar strain rats weighing 200±10 g. each were injected intradermally in the right hind paw with Freund's adjuvant (dried human tubercle bacilli in a mineral oil vehicle) at a dose of 2 mg./kg. of body weight. The test compounds were administered orally in a 1.5% starch vehicle at various doses once daily on days 0 to 13 post challenge. Control rats were treated in a similar manner, but given only starch vehicle. On the 14th and 21st day post challenge the diameter of the injected paw was measured by micrometer caliper. The volume of inflamed paws were estimated from these measurements and the effects of each compound are expressed as percent inhibition of swelling as compared to controls. Table II records the results of these tests conducted with representative compounds of this invention and known anti-inflammatory agents. The active compounds of this invention suppress the progression of the arthritis and associated joint deterioration.
Adjuvant-induced experimental polyarthritis is a specific systemic disease of the rat which shares interesting similarities with rheumatoid arthritis. Specifically the histology of the two diseases bears a remarkable resemblence as shown by C. M. Pearson et al., Am. J. Path. 42, 73 (1963). E. M. Glenn, Am. J. Vet. Res. 27, (116), 339 (1966) has classified adjuvant-induced polyarthritis as a crippling and permanent deformity resulting from diffuse connective tissue involvement areound certain susceptible joints in the rat. Zahiri et al, Can. Med. Ass. J., 101, 269 (1969) have shown that the fusiform swelling of the distal joints is associated with edema, congestion and synovitis including pannus formation, all of which precede the ultimate destruction of bone and cartilage. Furthermore, Zahiri et al., indicate that the cartilage destruction in the joint is due to an invasive pannus which originates in the marginal synovium and extends across the articular surface to erode it. […] The most pointed reference showing the relationship between arthritis and joint deterioration is an X-Ray analysis of adjuvant arthritis in the rat by Blackham et al., Agents and Actions 7, 145 (1977). In a similar manner, inhibition of the progress of arthritis in paws of rats treated with the compounds of this invention also lessens associated joint deterioration.

[4] = 336 h, once daily days 0 to 13, read-out: % Inhibition of Swelling, Day 14
[5] = 504 h, once daily days 0 to 13, read-out: % Inhibition of Swelling, Day 21

## COc1ccc(C(=O)/C(C#N)=C(/C)O)cc1 [Cis-3-hydroxy-2-(p-methoxybenzoyl)crotononitrile]
[1]
  C/T Ratio (edema of control animals/edema of treated animals): 1.59

## COc1ccc2c(c1)c(CC(=O)O)c(C)n2C(=O)c1ccc(Cl)cc1 [Indomethacin]
Arthritic paw swelling; S. Wong et al. 1973, G. R. Bobalick et al. 1974
  effect on joint and bone deterioration: prevent joint and bone deterioration
Arthritic paw swelling; literature
  effect on arthritic paw swelling: inhibit arthritic paw swelling

## C/C(O)=C(\C#N)C(=O)c1ccc(F)cc1 [Cis-2-(p-fluorobenzoyl)-3-hydroxycrotononitrile]
[2]; 5×10^-5 M
  #Actives/Total Tests: 4/4
[3]; [4]
  inhibition in vivo at 25 mg/kg: 65%
[3]; [5]
  inhibition in vivo at 25 mg/kg: 30%

## C/C(O)=C(\C#N)C(=O)c1ccc(Br)cc1 [Cis-2-(p-bromobenzoyl)-3-hydroxycrotononitrile]
[2]; 10 μg./ml.
  #Actives/Total Tests: 2/3

## COc1ccccc1C(=O)/C(C#N)=C(/C)O [Cis-3-hydroxy-2-(o-anisoyl)crotononitrile]
[2]; 5×10^-5 M
  #Actives/Total Tests: 4/5
[1]
  C/T Ratio (edema of control animals/edema of treated animals): 1.30

## CC(=O)Oc1ccccc1C(=O)O [Aspirin, reference compound]
[1]
  C/T Ratio (edema of control animals/edema of treated animals): 2.86

## C/C(O)=C(\C#N)C(=O)c1ccc(Cl)cc1 [Cis-2-(p-chlorobenzoyl)-3-hydroxycrotonitrile]
[3]; [4]
  inhibition in vivo at 25 mg/kg: 58%
[3]; [5]
  inhibition in vivo at 25 mg/kg: 15%

## C/C(O)=C(\C#N)C(=O)c1ccc(C)cc1 [Cis-3-hydroxy-2-p-toluoylcrotononitrile, Cis-3-hydroxy-2-(p-toluoyl)crotonitrile]
[1]
  C/T Ratio (edema of control animals/edema of treated animals): 1.41

## C/C(O)=C(\C#N)C(=O)c1ccccc1Cl [Cis-2-(o-chlorobenzoyl)-3-hydroxycrotononitrile]
[3]; [4]
  inhibition in vivo at 50 mg/kg: 39%
[3]; [5]
  inhibition in vivo at 50 mg/kg: 29%

## C/C(O)=C(\C#N)C(=O)c1ccc(C(F)(F)F)cc1 [Cis-3-hydroxy-2-(α,α,α-trifluoro-p-toluoyl)crontononitril]
[3]; [4]
  inhibition in vivo at 25 mg/kg: 68%
[3]; [5]
  inhibition in vivo at 25 mg/kg: 5%
[1]
  C/T Ratio (edema of control animals/edema of treated animals): 1.97

## C/C(O)=C(\C#N)C(=O)c1ccccc1F [Cis-2-(o-fluorobenzoyl)-3-hydroxycrotononitrile]
[1]
  C/T Ratio (edema of control animals/edema of treated animals): 2.18

## C/C(O)=C(\C#N)C(=O)c1cccc(Cl)c1C [Cis-2-(3-chloro-o-toluoyl)-3-hydroxycrotononitrile]
[2]; 5×10^-5 M
  #Actives/Total Tests: 3/5
[3]; [4]
  inhibition in vivo at 50 mg/kg: 61%
[3]; [5]
  inhibition in vivo at 50 mg/kg: 17%

## C/C(O)=C(\C#N)C(=O)c1cccc(F)c1 [Cis-2-(m-fluorobenzoyl)-3-hydroxycrotononitrile]
[3]; [4]
  inhibition in vivo at 50 mg/kg: 48%
[3]; [5]
  inhibition in vivo at 50 mg/kg: 37%
[1]
  C/T Ratio (edema of control animals/edema of treated animals): 1.61
